Laboratory results: PMC3612465 (International Journal of Alzheimer's Disease, 2013)
Where two headings read alike, the source gives them in different places.

What was measured:
[1] = system: Aβ40, Aβ42; set-up: species or system TgCRND8 mouse; conditions: mouse, in vivo, po, 100 mg/kg
[2] = system: Aβ40; test: Acute Aβ lowering in nontransgenic B6C3F1 mice; type: in vivo, nontransgenic B6C3F1 mouse; conditions: 3 hr
[3] = system: Aβ40, Aβ42; conditions: TgCRND8, single oral 30 mg/kg, 8 hr after dose
Description: (§1) Plasma and cortex Aβ42 were quantified in select TgCRND8 studies using biotin-4G8 and S-tag G2-11 and 4G8 antibodies.

[4] = system: Aβ40, Aβ42; set-up: species or system TgCRND8 mouse; conditions: mouse, in vivo
Description: as §1

[5] = system: Aβ40; test: Subchronic (11 days q.d. or 6 days b.i.d.) Aβ lowering in nontransgenic mice; type: in vivo, nontransgenic B6C3F1 mouse
[6] = system: HES-1, mATH1, KLF4 gene expression; test: Notch pathway biomarker gene expression in jejunum (RT-PCR); type: in vivo, nontransgenic B6C3F1 mouse; conditions: nontransgenic mice
Description: The jejunum was harvested, rinsed, and flash frozen in liquid nitrogen until later analyses. RNA was isolated from tissues using the Trizol reagent (Molecular Research Center, Inc.) followed by purification over an RNAeasy column (Qiagen).
RNA was purified over an RNAeasy column.

[7] = system: Aβ40; conditions: rat, single oral dose 10-100 mg/kg, 3 hr
[8] = system: Aβ; Notch-related toxicity; set-up: method as in PMID 21190552; conditions: 7 days of b.i.d. dosing, cited from earlier work

| Structure (SMILES) | cortex Aβ40 reduction [1] [%] | cortex Aβ42 reduction [1] [%] | cortex Aβ lowering ([2]; single oral 100 mg/kg) | cortex Aβ lowering ([2]; single oral 10, 30 and 100 mg/kg, P < 0.005) | cortex Aβ40 lowering [3] [%] | cortex Aβ42 lowering [3] [%] | cortex Aβ40 reduction [4] [%] | cortex Aβ42 reduction [4] [%] | cortex Aβ reduction [4] [%] | reduction of Aβ at partial inhibition dose [4] | dose giving 50% lowering of cortical Aβ ([5]; nontransgenic mice, 11 days q.d. and 6 days b.i.d.) | increase in Aβ in the cortex ([5]; nontransgenic mice, 11 days q.d. and 6 days b.i.d., 3-100 mg/kg) | continuous inhibition of Aβ with q.d. dosing ([5]; q.d. dosing (100 mg/kg), without Notch-related side effects) [%] | mATH1 expression in the jejunum ([6]; 100 mg/kg 6 days b.i.d., P < 0.04) | HES-1 expression in the jejunum ([6]; 100 mg/kg, 11 days q.d. and 6 days b.i.d., P < 0.02) | KLF4 expression in the jejunum ([6]; 30 and 100 mg/kg 6 days b.i.d., P < 0.04) | mATH1 and KLF expression in the jejunum ([6]; 11 day q.d. groups) | cortex Aβ40 reduction (plateau) [7] | lowering of Aβ ([8]; sustained but incomplete) | Notch-related toxicity (thymus weight, goblet cell hyperplasia in the ileum) [8] |
| --- | --- | --- | --- | --- | --- | --- | --- | --- | --- | --- | --- | --- | --- | --- | --- | --- | --- | --- | --- | --- |
| O=C(OC1([C@H]2CCC[C@@H](c3cc(F)cc(F)c3)N2S(=O)(=O)c2ccc(Cl)cc2)CC1)N1CCN(CCO)CC1 (relative stereo) [SCH 697466, 1-[cis-1-[(4-chlorophenyl)sulfonyl]-6-(3,5-difluorophenyl)-2-piperidinyl]cyclopropyl 4-(2-hydroxyethyl)-1-piperazinecarboxylate] | 55 | 47 | Near complete lowering | significant lowering | 82 | 42 | 98 | 66 | 48 | ~ 50% | around 30 mg/kg | no evidence of an increase | > 80 | increased expression | significant decreases | increased expression | unchanged | about 60% |  |  |
| O=S(=O)(c1ccc(Cl)cc1)N1[C@@H]2CCC[C@H]1c1cn[nH]c1C2 [ELN 475516] |  |  |  |  |  |  |  |  |  |  |  |  |  |  |  |  |  |  | ~ 74% | no evidence of Notch-related toxicity |
